Experimental data reported in patent EP0596057B1, “QUINUCLIDINE DERIVATIVES AS SQUALENE SYNTHASE INHIBITORS” (priority 1992, dated 1993).

What was measured:
Squalene synthase = molecular target: T1, Squalene synthase (Rattus norvegicus, UniProt Q02769); test: Inhibition of Squalene synthase (formation of squalene from tritiated farnesyl pyrophosphate, rat liver microsomal protein); assay type: biochemical; details: substrate 1-[3H]-farnesyl pyrophosphate 20µM, 37°C, 15 minutes, read-out: IC50 (concentration which results in a 50% inhibition of squalene production)
T1 construct: from tissue; host or cells: rat liver microsomes
T1 sequence (Q02769 1-416): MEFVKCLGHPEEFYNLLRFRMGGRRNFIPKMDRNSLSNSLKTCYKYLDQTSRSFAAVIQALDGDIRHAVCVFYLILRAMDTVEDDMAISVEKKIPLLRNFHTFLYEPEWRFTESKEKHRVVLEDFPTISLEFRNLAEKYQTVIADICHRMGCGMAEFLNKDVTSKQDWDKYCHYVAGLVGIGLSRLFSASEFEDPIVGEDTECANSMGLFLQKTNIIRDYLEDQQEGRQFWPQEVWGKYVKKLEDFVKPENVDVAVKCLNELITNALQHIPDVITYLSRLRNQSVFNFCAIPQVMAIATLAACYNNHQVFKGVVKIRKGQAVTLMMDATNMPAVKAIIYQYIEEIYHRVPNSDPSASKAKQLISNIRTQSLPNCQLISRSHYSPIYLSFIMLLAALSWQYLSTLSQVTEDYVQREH
Method: In this test, the ability of a compound to prevent the formation of squalene from a radioactive substrate (tritiated farnesyl pyrophosphate) is assessed.
The test compound is incubated at a concentration of 25 micromolar in 200µl of a buffered solution containing potassium phosphate (50mM), MgCl2 (4.95mM), KF (9.9mM), NADPH (0.9mM) and rat liver microsomal protein (20µg). Rat liver microsomes are prepared by the method described in published European Patent Application No. 324,421 and stored in liquid nitrogen prior to assay. Assay vials are kept at 37°C throughout the incubation.
The reaction is started with the addition of the substrate (1-[^3H]-farnesyl pyrophosphate), final concentration 20µM, and stopped after 15 minutes reaction time with the addition of 50µl of 4% KOH. The reaction products are separated from unreacted substrate after application to a C-18 octadecyl lccBond column (Analytichem Int product No. 617101). An aqueous fraction is eluted with 250µl of 0.1M KOH. Squalene is then eluted with 1.0 ml 10% ethylacetate in hexane and radioactivity determined. The difference in radioactivity in the presence and absence of the test compound is used to determine the level of inhibition. […]

[1] = tested on: de novo hepatic cholesterol synthesis; test: Acute rat cholesterol synthesis assay (de novo hepatic cholesterol synthesis from 14C-acetate); assay type: in vivo; details: female rats, [2-14C]-acetate ip 1 hour after compound, plasma sampled after a further hour, route not stated
Method: This is an acute in vivo test in the rat to measure de novo hepatic cholesterol synthesis from exogenously administered ^14C-acetate.
Female rats (35 - 55 g) are housed in reverse lighting conditions (red light from 0200h - 1400h) for a period of about 2 weeks prior to test. Animals are allowed free access to chow and drinking water throughout this period. At test, animals should weigh 125 - 150 g.
Test compounds may be administered by oral gavage, dissolved or suspended in 0.5% polysorbate, or by ip or iv dosing. Control animals receive vehicle alone. After 1 hour the rats are injected ip with 25µCi [2-^14C]-acetate (NEN DUPONT. specific activity, 45-60mCi/mmol NEC-085H, or AMERSHAM specific activity, 50-60mCi/mmol CFA 14) in a volume of 0.25 ml saline (100µCi/ml). After a further hour a blood sample was obtained from the abdominal vena cava under terminal halothane anaesthesia.
1ml of plasma is lyophilised and then saponified in 2ml ethanolic KOH (1 part 33% KOH, 9 parts ethanol) at 75°C for 2 hours. After addition of an equal quantity of water, non-saponifiable lipids are extracted with […] 5ml volumes of hexane. The hexane extracts are evaporated to dryness and the residues dissolved in ethanol to determine cholesterol specific radioactivity. ED50 values can be determined in the standard way.

Compound	IC50 (Squalene synthase)	ED50 [1]
OC1(c2ccc(COc3ccccc3)cc2)CN2CCC1CC2 (centres unmarked) [Example 2, 3-(4-phenoxymethylphenyl)-quinuclidin-3-ol]	30 nM	
OC1(c2ccc(C#Cc3ccccc3)cc2)CN2CCC1CC2 (centres unmarked) [Example 4, 3-(4-phenylethyn-2-ylphenyl)quinuclidin-3-ol]		29 mg/kg
